Values quoted from earlier work, collected in patent publication US20140005116A1, “KELOID TREATMENT” (ADE THERAPEUTICS INC., priority 2010, published 2014).
Peptide text beside a SMILES is read from it.

Details: heat sterilization and prolonged storage

Structure (SMILES) | stability during sterilization and prolonged storage
NCC(=O)N[C@@H](CCC(N)=O)C(=O)O [Glycyl-glutamine] (H-Gly-Gln-OH) | sufficiently stable
C[C@H](N)C(=O)N[C@@H](CCC(N)=O)C(=O)O [alanyl-glutamine, L-alanyl-L-glutamine] (H-Ala-Gln-OH) | sufficiently stable
